Test results published in patent US20080235824A1, “Use of Esterase Genes as Selectable Markers for Transforming Plant Cells” (priority 2006, published 2008).

Legend:
[1] = test system: geranium petiole explants; assay: Survival of geranium petiole explants on regeneration medium with detergents; assay type: cell-based, Pelargonium X hortorum; conditions: for Survival of geranium petiole explants on regeneration medium: surviving/total explants
Experimental: Tween 20, a nonionic, fatty acid ester detergent, was evaluated as a potential selective agent for use in geranium (Pelargonium X hortorum) transformation experiments by placing geranium petiole explants into tissue culture with the addition to Tween 20 to the regeneration (shooting) medium normally used in geranium transformations (Robichon et al., 1995). Tween 20 was added at three concentrations: 1%, 0.1% and 0.01%. Each treatment consisted of 40 sterilized petiole explants placed in four tissue culture plates carrying 10 explants each. Survival of the explants was assayed weekly over four weeks on these media. Potential selective agent Span 20, also a nonionic, fatty acid ester detergent, was similarly evaluated, except that concentrations of 1%, 0.5% and 0.25% were evaluated over a twelve week period of time. The nonionic detergent Triton X-100, which is not a fatty acid ester detergent, was included for comparative purposes.

tomato leaf explants = assay: Survival of tomato leaf explants on regeneration medium with detergents; assay type: cell-based, Lycoperisicon esculentum; conditions: 1% detergent; for Survival of tomato leaf explants on regeneration medium: surviving/total explants
Experimental: Tween 20 was similarly evaluated as a potential selective agent for use in tomato (Lycoperisicon esculentum) transformations by placing tomato leaf explants placed into tissue culture; Tween 20 was added to tomato regeneration (shooting) medium normally used in tomato transformations (Riggs et al., 2001) at a 1% concentration. Each treatment consisted of 40 sterilized leaf explants placed in four tissue culture plates carrying 10 explants each. Survival of the explants was assayed weekly over four weeks on these media.

[2] = test system: tomato cultivar Micro-Tom leaf explants; assay: Agrobacterium transformation of tomato with selection on detergent or kanamycin; assay type: cell-based, Lycopersicon esculentum; conditions: for No. of independent calli forming shoots / No. of rooted shoots / Transformation frequency (%): tomato Micro-Tom, pIPG768 bovine PGE; for Transformation frequency (%): confirmed by PCR
Excerpt: Transgenic tomato (Lycopersicon esculentum) cultivar “Micro-Tom” plants were created using the Agrobacterium tumefaciens DNA delivery method [Riggs et al., 2001; Sun et al., 2006] using pIPG768. Selection was either on 1% Tween 20 added to both shoot and root regeneration media. As controls for comparative purposes, 100 micrograms/ml kanamycin was used.

[3] = test system: tobacco cultivar Xanthi leaf explants; assay: Agrobacterium transformation of tobacco with selection on detergent or kanamycin; assay type: cell-based, Nicotiana tabacum; conditions: for Transformation frequency (%): confirmed by PCR
Excerpt: Transgenic tobacco (Nicotiana tabacum) cultivar “Xanthi” plants were created using the Agrobacterium tumefaciens DNA delivery method [Horsch et al., 1985] using pIPG833. Selection was on 1% or on 0.05% Tween 20 added to both shoot and root regeneration media. As a control for comparative purposes, pIPG786 was used (carrying the nptII gene for kanamycin resistance) for transformation and 100 micrograms/ml kanamycin was used for selection.
Transgenic tobacco (Nicotiana tabacum) cultivar “Xanthi” plants were created using the Agrobacterium tumefaciens DNA delivery method [Horsch et al., 1985] using pIPG833. Selection was on 1% or on 0.05% Span 20 added to both shoot and root regeneration media.
Transgenic tobacco (Nicotiana tabacum) cultivar “Xanthi” plants were created using the Agrobacterium tumefaciens DNA delivery method [Horsch et al., 1985] using pIPG875. Selection was on 1% Span 20 added to the shoot regeneration medium and 0.05% Span 20 added to the root regeneration medium.

rooting tomato plants = assay: Root growth of rooting tomato plants on 1% Tween 20 medium; assay type: in vivo
Excerpt: The plant on the left, labeled “731”, was transformed using kanamycin selection and the kanamycin resistance gene driven by the 35S promoter on pIPG731 (ie., “empty” vector, without a lipase gene). The plant on the right, labeled “768”, was similarly transformed using kanamycin selection and the kanamycin resistance gene driven by the 35S promoter on pIPG768 (carrying a lipase gene). Both plants were rooted, kanamycin resistant transformants. Both plants, with roots removed to ca. 1-4 mm from the base, were transferred to rooting medium containing 1% Tween 20. After one week, the roots of both plants had grown to about the extent of the pIPG731 transformed plant, and the small ink marks were placed on the plates to indicate the extent of the root growth. Two weeks later, the roots on the plant transformed with pIPG731 had ceased to elongate and its roots started to appear brown at the growing tips, while the roots on the plant transformed with pIPG768 continued growing.
In order to test if the rooting medium inhibited or killed nontransgenic tomato that were rooting, regenerating nontransgenic tomato plants that were rooting, as well as transgenic tomato plants carrying pIPG678 that were rooting were placed on 1% Tween 20 medium.

[4] = test system: tobacco cultivar Xanthi leaf explants; assay: Agrobacterium transformation of tobacco with selection on detergent or kanamycin; assay type: cell-based, Nicotiana tabacum; conditions: pIPG833 bovine PGE, 0.5% Tween, 73 explants
[5] = 1% Tween in shoot and root media, Exp. 1, 253 explants
[6] = tobacco Xanthi, pIPG833 bovine PGE, 1% Tween, 73 explants

Tween 20
Survival of geranium petiole explants on regeneration medium ([1]; 0.01% detergent, Week 1): 33/40
Survival of geranium petiole explants on regeneration medium ([1]; 0.01% detergent, Week 2): 27/40
Survival of geranium petiole explants on regeneration medium ([1]; 0.01% detergent, Week 3): 20/40
Survival of geranium petiole explants on regeneration medium ([1]; 0.01% detergent, Week 4): 0/40
Survival of geranium petiole explants on regeneration medium ([1]; 0.1% detergent, Week 1): 31/40
Survival of geranium petiole explants on regeneration medium ([1]; 0.1% detergent, Week 2): 10/40
Survival of geranium petiole explants on regeneration medium ([1]; 0.1% detergent, Week 3): 0/40
Survival of geranium petiole explants on regeneration medium ([1]; 0.1% detergent, Week 4): 0/40
Survival of geranium petiole explants on regeneration medium ([1]; 1% detergent, Week 1): 10/40
Survival of geranium petiole explants on regeneration medium ([1]; 1% detergent, Week 2): 0/40
Survival of geranium petiole explants on regeneration medium ([1]; 1% detergent, Week 3): 0/40
Survival of geranium petiole explants on regeneration medium ([1]; 1% detergent, Week 4): 0/40
Killing of geranium explants in tissue culture (in words) ([1]; summary of Table 1): completely killed all geranium explants in four weeks, even at the lowest level (0.01%) tested
Survival of tomato leaf explants on regeneration medium (tomato leaf explants; Week 1): 8/40
Survival of tomato leaf explants on regeneration medium (tomato leaf explants; Week 2): 8/40
Survival of tomato leaf explants on regeneration medium (tomato leaf explants; Week 3): 3/40
Survival of tomato leaf explants on regeneration medium (tomato leaf explants; Week 4): 0/40
Killing of tomato explants in tissue culture (in words) (tomato leaf explants; summary of Table 2): completely killed all tomato explants in four weeks
Share of tomato leaf material provided with bovine PGE on pIPG768 producing green shoots ([2]; regeneration medium with 1% Tween 20): nearly half
Fate of tomato leaf material provided with empty vector control plasmid ([2]; regeneration medium with 1% Tween 20, 30 days of selection): either died or produced a small amount of brown callus that died
No. of independent calli forming shoots [2, 5]: 25
No. of rooted shoots [2, 5]: 25
Transformation frequency (%) ([2]; 1% Tween, Exp. 1, 253 explants): 7%
No. of independent calli forming shoots ([2]; 1% Tween, Exp. 2, 204 explants): 15
No. of rooted shoots ([2]; 1% Tween, Exp. 2, 204 explants): 15
Transformation frequency (%) ([2]; 1% Tween, Exp. 2, 204 explants): 4%
No. of independent calli forming shoots ([2]; 1% Tween, Exp. 3, 275 explants): 48
No. of rooted shoots ([2]; 1% Tween, Exp. 3, 275 explants): 48
Transformation frequency (%) ([2]; 1% Tween, Exp. 3, 275 explants): 4%
Tissue provided with pIPG833 producing shoots ([3]; regeneration medium with 0.05% detergent): 100%
Tobacco leaf material provided with bovine PGE on pIPG833 producing green shoots ([3]; regeneration medium with 1% detergent): 16%
Transformation efficiency ([3]; tobacco Xanthi, pIPG833, detergent at the 0.05% level): 6%
No. of independent calli forming shoots ([3]; tobacco Xanthi, pIPG833 bovine PGE, 0.5% Tween, 73 explants): 73
No. of independent calli forming shoots ([3]; tobacco Xanthi, pIPG833 bovine PGE, 1% Tween in shoot and root media, 73 explants): 12
No. of rooted shoots [3, 6]: 12
Transformation frequency (%) [3, 6]: 5%
Transformation frequency (%) ([3]; tobacco Xanthi, pIPG833 bovine PGE, 1% Tween, 73 explants, listed as Tween): 5%
Growth of transgenic tomato plants expressing bovine PGE (rooting tomato plants): did not affect growth
Root growth of nontransgenic rooting tomato plants (rooting tomato plants): completely and almost immediately inhibited root growth
No. of rooted shoots [4]: 73
Transformation frequency (%) ([4]; confirmed by PCR): 6%
